This passage reports EC50 results from patent US9688695B2, “Imidazothiadiazole and imidazopyrazine derivatives as protease activated receptor 4 (PAR4) inhibitors for treating platelet aggregation” (BRISTOL-MYERS SQUIBB COMPANY, priority 2012, dated 2017).

SMILES strings stand for the structures.

Sequence of PAR4 (Q96RI0 18-385): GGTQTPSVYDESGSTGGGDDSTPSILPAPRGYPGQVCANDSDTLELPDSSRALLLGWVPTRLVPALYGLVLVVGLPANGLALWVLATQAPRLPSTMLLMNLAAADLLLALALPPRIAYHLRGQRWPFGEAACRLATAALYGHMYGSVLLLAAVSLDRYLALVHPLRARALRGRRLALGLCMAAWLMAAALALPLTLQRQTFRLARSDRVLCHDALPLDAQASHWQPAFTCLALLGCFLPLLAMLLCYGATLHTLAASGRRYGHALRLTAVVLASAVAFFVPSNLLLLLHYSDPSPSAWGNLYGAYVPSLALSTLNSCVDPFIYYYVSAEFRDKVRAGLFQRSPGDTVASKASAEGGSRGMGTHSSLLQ

This experiment addresses PAR4 (Homo sapiens (Human), UniProt Q96RI0). The experiment in a line: FLIPR assay in PAR4-expressing HEK293 cells (PAR4 antagonist activity, calcium mobilization). Conditions: H-Ala-Phe(4-F)-Pro-Gly-Trp-Leu-Val-Lys-Asn-Gly-NH2-induced calcium mobilization. Format: cell-based. The source says: The FLIPR assay is an exemplary in vitro assay for measuring the activity of the PAR4 antagonists of the present invention. In this assay, intracellular calcium mobilization is induced in PAR4 expressing cells by a PAR4 agonist and calcium mobilization is monitored. See, e.g., Example A.
HEK293 cells stably expressing PAR4 were generated by a standard method of transfection of human […] cDNA expression vector or by RAGE technology from Athersys Inc. (Cleveland, Ohio) and selected based on PAR4 protein expression of mRNA expression. […] These cells express endogenous PAR1 and can elicit calcium signal upon stimulation with PAR1 agonist peptide.
Counter screens for agonist activity and PAR1 antagonist activity were also performed. Briefly, HEK293 EBNA PAR4 clone 20664.1J cells were plated 24 hrs. prior to experiment in 384 well, Poly-D-Lysine coated, black, clear bottom plates (Greiner Bio-One, Monroe, N.C.). Cells were plated at 20,000 cells/well in […] growth medium and incubated at 37° C. with 5% CO2 overnight. At time of assay, media was replaced with 40 μl 1× Hank's Buffered Saline Solution (HBSS) (with 10 mM HEPES) and 20 μl test compound also diluted in 1×HBSS buffer was added at various concentrations and 0.67% DMSO final concentration on the FDSS for agonist measurement. The cells were then incubated for 30 minutes at room temperature followed by addition of 20 μl of agonist peptide for antagonist measurement on the FDSS.
As indicated above, the FLIPR assay, an in vitro assay, measures the PAR4 antagonist activity of compounds tested as described in Example A. The PRP assay, an in vitro assay, measures the PAR4 antagonist assay of the compounds tested in the presence of plasma proteins and thrombin agonist as described in Example C.
Turning to `COc1cc(OCc2csc(-c3cccc(C)c3)n2)c2cc(-c3cn4nc(OC)sc4n3)oc2c1` [Example 12], the EC50 turned out to be 1.3 nM.

In the case of `COc1cc(OCc2nc(-c3ccccc3)sc2C)c2cc(-c3cn4nc(OC)sc4n3)oc2c1` [Example 13], the EC50 is 2.1 nM.

Take `COc1cc(OCc2csc(-c3ccc(F)cc3)n2)c2cc(-c3cn4nc(OC)sc4n3)oc2c1` [Example 15]: the EC50 is 0.98 nM.

`COc1cc(OCc2csc(-c3ccccc3Cl)n2)c2cc(-c3cn4nc(OC)sc4n3)oc2c1` [Example 16]: the EC50 was found to be 3.4 nM.

Regarding `COc1cc(OCc2csc(-c3cccc(C(F)(F)F)c3)n2)c2cc(-c3cn4nc(OC)sc4n3)oc2c1` [Example 17], the EC50 is 1.1 nM.

For the compound `COc1cc(OCc2csc(-c3ccccc3OC)n2)c2cc(-c3cn4nc(OC)sc4n3)oc2c1` [Example 19], the EC50 stood at 1 nM.

As for `COc1cc(OCc2csc(C3CCCCC3)n2)c2cc(-c3cn4nc(OC)sc4n3)oc2c1` [Example 20], the EC50 is 1.1 nM.

As for `COc1cc(OCc2csc(-c3ccc(F)cc3F)n2)c2cc(-c3cn4nc(OC)sc4n3)oc2c1` [Example 24], the EC50 was 1.1 nM.

Regarding `COc1cc(OCc2csc(-c3cccc(F)c3)n2)c2cc(-c3cn4nc(OC)sc4n3)oc2c1` [Example 25], the EC50 was 0.55 nM.

As to `COc1cc(OCc2csc(-c3ccccc3F)n2)c2cc(-c3cn4nc(OC)sc4n3)oc2c1` [Example 26], the EC50 was 1.8 nM.

In the case of `COc1cc(OCc2csc(-c3ccc(Cl)cc3)n2)c2cc(-c3cn4nc(OC)sc4n3)oc2c1` [Example 27], the EC50 turned out to be 1.6 nM.

With `COc1cc(OCc2csc(-c3ccc(OC(F)(F)F)cc3)n2)c2cc(-c3cn4nc(OC)sc4n3)oc2c1` [Example 29], the EC50 stood at 1.4 nM.

With `COc1cc(OCc2csc(-c3cccnc3)n2)c2cc(-c3cn4nc(OC)sc4n3)oc2c1` [Example 30], the EC50 is 0.65 nM.

As to `COc1cc(OCc2csc(N3CCC(F)(F)CC3)n2)c2cc(-c3cn4nc(OC)sc4n3)oc2c1` [Example 31], the EC50 stood at 0.59 nM.

`COc1cc(OCc2csc(-c3cnccn3)n2)c2cc(-c3cn4nc(OC)sc4n3)oc2c1` [Example 32]: the EC50 came to 1.3 nM.

`COc1cc(OCc2csc(Br)n2)c2cc(-c3cn4nc(OC)sc4n3)oc2c1` [Example 35]: the concentration for a half-maximal effect (EC50) stood at 1.3 nM.

In the case of `COC(=O)c1ccc(-c2nc(COc3cc(OC)cc4oc(-c5cn6nc(OC)sc6n5)cc34)cs2)cc1` [Example 37, Methyl 4-(4-(((6-methoxy-2-(2-methoxyimidazo[2,1-b][1,3,4]thiadiazol-6-yl)benzofuran-4-yl)oxy)methyl)thiazol-2-yl)benzoate], the EC50 was determined as 0.45 nM.

For `COc1cc(OCc2csc(-c3ccc(C(=O)NC(C)(C)C)cc3)n2)c2cc(-c3cn4nc(OC)sc4n3)oc2c1` [Example 41, N-(tert-Butyl)-4-(4-(((6-methoxy-2-(2-methoxyimidazo[2,1-b][1,3,4]thiadiazol-6-yl)benzofuran-4-yl)oxy)methyl)thiazol-2-yl)benzamide], the concentration for a half-maximal effect (EC50) was 0.9 nM.

Regarding `COc1cc(OCc2nc(-c3ccc(C(=O)N(C)C)cc3)sc2C(C)C)c2cc(-c3cn4nc(OC)sc4n3)oc2c1` [Example 42, 4-(5-Isopropyl-4-(((6-methoxy-2-(2-methoxyimidazo[2,1-b][1,3,4]thiadiazol-6-yl)benzofuran-4-yl)oxy)methyl)thiazol-2-yl)-N,N-dimethylbenzamide], the concentration giving a half-maximal response (EC50) is 2.5 nM.

As to `COc1cc(OCc2nc(-c3ccnc(F)c3)sc2C(C)C)c2cc(-c3cn4nc(OC)sc4n3)oc2c1` [Example 43, 6-(4-((2-(2-Fluoropyridin-4-yl)-5-isopropylthiazol-4-yl)methoxy)-6-methoxybenzofuran-2-yl)-2-methoxyimidazo[2,1-b][1,3,4]thiadiazole], the EC50 was 0.34 nM.
